Columns and labels:
[1] = Inhibition of Penicillium decumbens alpha-L-rhamnosidase assessed as reduction in hydrolysis of p-nitrophenyl-a-L-rhamnopyranoside
[2] = Inhibition of Penicillium decumbens alpha-L-rhamnosidase using p-nitrophenyl-glycoside as substrate by spectrophotometric method
[3] = Competitive inhibition of Penicillium decumbens alpha-L-rhamnosidase using p-nitrophenyl-glycoside as substrate by Lineweaver-Burk plot analysis
[4] = Inhibition of Penicillium decumbens alpha-L-rhamnosidase
Penicillium decumbens = assay: Inhibition of Penicillium decumbens alpha-L-rhamnosidase at 1000 uM using p-nitrophenyl-glycoside as substrate by spectrophotometric method
Prunus dulcis = assay: Inhibition of almond beta-glucosidase at 1000 uM using p-nitrophenyl-glycoside as substrate by spectrophotometric method
[5] = Inhibition of bovine liver beta-glucosidase using p-nitrophenyl-glycoside as substrate by spectrophotometric method; set-up: species or system Bos taurus
Homo sapiens = species: Homo sapiens; assay: Inhibition of human lysosomal beta-glucosidase at 1000 uM using 4-methylumbelliferyl-beta-D-glucopyranoside as substrate preincubated for 45 mins followed by substrate addition measured after 30 mins by fluorescence spectrophotometric method
Aspergillus niger = assay: Inhibition of Aspergillus niger amyloglucosidase assessed as D-glucose level at 1000 uM using maltose as substrate measured after 10 to 30 mins
Beta-galactosidase = biological target: T1, Beta-galactosidase (Bos taurus, UniProt Q58D55); assay: Inhibition of bovine liver beta-galactosidase using p-nitrophenyl-glycoside as substrate by spectrophotometric method
T1 sequence (Q58D55 whole entry): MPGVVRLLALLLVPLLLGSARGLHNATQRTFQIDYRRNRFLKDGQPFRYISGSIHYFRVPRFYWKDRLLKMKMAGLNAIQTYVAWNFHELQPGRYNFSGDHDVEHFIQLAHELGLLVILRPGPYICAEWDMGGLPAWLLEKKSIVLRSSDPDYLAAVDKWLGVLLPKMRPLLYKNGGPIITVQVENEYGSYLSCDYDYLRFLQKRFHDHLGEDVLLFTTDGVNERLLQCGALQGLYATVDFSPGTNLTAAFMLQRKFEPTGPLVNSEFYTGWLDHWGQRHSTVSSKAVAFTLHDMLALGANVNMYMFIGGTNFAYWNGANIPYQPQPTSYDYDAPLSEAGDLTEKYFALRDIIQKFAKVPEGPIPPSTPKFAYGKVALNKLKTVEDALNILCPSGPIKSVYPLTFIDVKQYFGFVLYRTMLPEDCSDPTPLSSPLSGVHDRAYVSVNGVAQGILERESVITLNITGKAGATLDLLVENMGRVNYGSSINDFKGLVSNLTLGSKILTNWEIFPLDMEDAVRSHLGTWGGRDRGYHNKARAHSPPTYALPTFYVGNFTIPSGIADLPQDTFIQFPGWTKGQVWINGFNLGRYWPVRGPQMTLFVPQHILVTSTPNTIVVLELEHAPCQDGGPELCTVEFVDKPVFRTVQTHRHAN

[6] = biological target: T2, Tissue alpha-L-fucosidase (Bos taurus) (UniProt Q2KIM0); assay: Inhibition of bovine kidney alpha-L-fucosidase at 1000 uM using p-nitrophenyl-glycoside as substrate by spectrophotometric method
T2 sequence (whole entry): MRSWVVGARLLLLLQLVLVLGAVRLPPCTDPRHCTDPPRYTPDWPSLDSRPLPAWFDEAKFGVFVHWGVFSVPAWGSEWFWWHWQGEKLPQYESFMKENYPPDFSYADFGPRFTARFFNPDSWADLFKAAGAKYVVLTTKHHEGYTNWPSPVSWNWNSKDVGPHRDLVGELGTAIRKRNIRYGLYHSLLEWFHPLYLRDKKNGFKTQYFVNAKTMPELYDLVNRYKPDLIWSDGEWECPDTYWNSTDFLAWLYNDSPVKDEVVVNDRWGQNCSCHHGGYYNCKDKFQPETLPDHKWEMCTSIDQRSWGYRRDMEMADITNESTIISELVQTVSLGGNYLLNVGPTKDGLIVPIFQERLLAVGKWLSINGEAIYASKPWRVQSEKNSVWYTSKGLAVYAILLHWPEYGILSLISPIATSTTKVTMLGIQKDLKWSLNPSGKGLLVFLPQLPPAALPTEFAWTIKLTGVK

[7] = biological target: T3, Uncharacterized protein (Sus scrofa) (UniProt I3LIR5); assay: Inhibition of porcine kidney trehalase assessed as D-glucose level at 1000 uM using maltose as substrate measured after 10 to 30 mins
T3 sequence (whole entry): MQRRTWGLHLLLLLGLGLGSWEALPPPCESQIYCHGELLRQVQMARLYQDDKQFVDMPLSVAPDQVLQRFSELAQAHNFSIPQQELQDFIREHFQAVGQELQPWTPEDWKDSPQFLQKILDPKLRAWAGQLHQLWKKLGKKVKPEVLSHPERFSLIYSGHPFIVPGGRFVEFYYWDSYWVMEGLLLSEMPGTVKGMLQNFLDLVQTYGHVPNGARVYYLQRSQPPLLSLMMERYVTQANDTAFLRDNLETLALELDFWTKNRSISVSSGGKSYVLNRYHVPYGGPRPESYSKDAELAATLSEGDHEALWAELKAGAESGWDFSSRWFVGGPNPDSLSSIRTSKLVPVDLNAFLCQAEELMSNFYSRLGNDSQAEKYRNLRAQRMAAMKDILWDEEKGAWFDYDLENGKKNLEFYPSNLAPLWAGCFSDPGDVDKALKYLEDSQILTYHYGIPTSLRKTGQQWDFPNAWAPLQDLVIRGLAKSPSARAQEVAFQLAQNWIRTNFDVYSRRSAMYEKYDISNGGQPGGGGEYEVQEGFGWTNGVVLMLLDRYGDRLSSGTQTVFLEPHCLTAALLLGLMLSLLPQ

Escherichia coli [8] = assay: Inhibition of Escherichia coli beta-glucuronidase at 1000 uM using p-nitrophenyl-glycoside as substrate by spectrophotometric method
[9] = Inhibition of rice alpha-glucosidase using p-nitrophenyl-glycoside as substrate by spectrophotometric method; set-up: species or system Oryza sativa
[10] = Inhibition of maltase in rat small intestinal brush border membranes assessed as D-glucose level using maltose as substrate measured after 10 to 30 mins
Saccharomyces cerevisiae = assay: Inhibition of yeast alpha-glucosidase at 1000 uM using p-nitrophenyl-glycoside as substrate by spectrophotometric method
[11] = Inhibition of human lysosomal beta-glucosidase using 4-methylumbelliferyl-beta-D-glucopyranoside as substrate preincubated for 45 mins followed by substrate addition measured after 30 mins by fluorescence spectrophotometric method
Coffea = assay: Inhibition of coffee bean alpha-galactosidase at 1000 uM using p-nitrophenyl-glycoside as substrate by spectrophotometric method
Escherichia coli [12] = assay: Inhibition of Escherichia coli beta-galactosidase at 1000 uM using p-nitrophenyl-glycoside as substrate by spectrophotometric method
[13] = biological target: T4, Alpha-mannosidase (Canavalia ensiformis) (UniProt C0HJB3); assay: Inhibition of Jack bean alpha-mannosidase at 1000 uM preincubated for 45 mins followed by addition of p-nitrophenyl-glycoside as substrate measured after 30 mins by fluorescence spectrophometry
T4 sequence (whole entry): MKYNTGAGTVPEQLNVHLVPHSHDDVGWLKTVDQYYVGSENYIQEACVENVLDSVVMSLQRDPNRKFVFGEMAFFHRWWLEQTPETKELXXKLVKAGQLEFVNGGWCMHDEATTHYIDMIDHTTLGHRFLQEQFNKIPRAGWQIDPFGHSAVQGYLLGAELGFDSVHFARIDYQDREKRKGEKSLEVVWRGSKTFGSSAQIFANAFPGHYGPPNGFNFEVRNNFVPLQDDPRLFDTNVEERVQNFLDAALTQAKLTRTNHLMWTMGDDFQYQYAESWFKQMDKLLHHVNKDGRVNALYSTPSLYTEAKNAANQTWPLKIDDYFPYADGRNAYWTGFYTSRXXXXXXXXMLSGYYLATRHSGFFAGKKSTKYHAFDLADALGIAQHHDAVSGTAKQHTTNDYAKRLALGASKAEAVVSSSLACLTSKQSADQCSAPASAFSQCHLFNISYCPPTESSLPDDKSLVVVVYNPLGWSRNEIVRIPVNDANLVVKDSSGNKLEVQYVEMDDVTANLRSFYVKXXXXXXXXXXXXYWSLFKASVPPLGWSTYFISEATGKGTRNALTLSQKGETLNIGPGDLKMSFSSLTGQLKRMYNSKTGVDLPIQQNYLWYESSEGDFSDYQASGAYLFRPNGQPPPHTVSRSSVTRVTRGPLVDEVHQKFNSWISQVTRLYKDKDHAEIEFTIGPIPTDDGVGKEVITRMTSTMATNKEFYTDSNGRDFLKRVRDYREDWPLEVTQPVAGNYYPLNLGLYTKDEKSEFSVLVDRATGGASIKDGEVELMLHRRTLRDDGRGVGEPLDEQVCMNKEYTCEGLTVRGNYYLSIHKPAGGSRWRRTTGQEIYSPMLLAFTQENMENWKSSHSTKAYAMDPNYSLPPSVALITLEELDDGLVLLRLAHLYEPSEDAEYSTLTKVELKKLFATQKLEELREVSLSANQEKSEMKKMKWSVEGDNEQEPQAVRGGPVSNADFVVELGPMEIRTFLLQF

Helix pomatia = assay: Inhibition of Helix pomatia beta-mannosidase at 1000 uM using p-nitrophenyl-glycoside as substrate by spectrophotometric method
Oryza sativa = assay: Inhibition of rice alpha-glucosidase at 1000 uM using p-nitrophenyl-glycoside as substrate by spectrophotometric method
Rattus norvegicus = species: Rattus norvegicus; assay: Inhibition of rat intestinal maltase assessed as D-glucose level at 1000 uM using maltose as substrate measured after 10 to 30 mins
[14] = biological target: T5, Beta-galactosidase (Bos taurus) (UniProt Q58D55); assay: Inhibition of bovine liver beta-galactosidase at 1000 uM using p-nitrophenyl-glycoside as substrate by spectrophotometric method
T5 sequence (whole entry): T1 sequence (Q58D55 whole entry)

inhibition (Penicillium decumbens) | inhibition (Prunus dulcis) | IC50 [5] | inhibition (Homo sapiens) | inhibition (Aspergillus niger) | IC50 (Beta-galactosidase) | inhibition [6] | inhibition [7] | inhibition (Escherichia coli [8]) | IC50 [9] | IC50 [10] | Structure (SMILES) | IC50 [1] | other results
 |  |  |  |  |  |  |  |  |  |  | C[C@H](O)[C@@H]1NC[C@H](O)[C@@H]1O | 4 µM | 
 |  |  |  |  |  |  |  |  |  |  | C[C@H]1NC[C@H](O)[C@H](O)[C@H]1O |  | IC50 [2]: 10 µM; Ki [3]: 4.2 µM; IC50 [4]: 5 µM
< 50% | < 50% | 178 µM | < 50% | < 50% | 266 µM | < 50% | < 50% | < 50% | 1000 µM | 1000 µM | CCCCCCCCNC(=S)N1[C@@H](CO)[C@H](O)[C@@H](O)[C@@H]1CO |  | 
< 50% | < 50% | 63 µM |  | < 50% |  | < 50% | < 50% | < 50% |  |  | CCCCCCCC/N=C1/SC[C@@H]2[C@@H](O)[C@H](O)[C@@H](CO)N12 |  | inhibition (Saccharomyces cerevisiae): < 50%; IC50 [11]: 2.4 µM; inhibition (Coffea): < 50%; inhibition (Escherichia coli [12]): < 50%; inhibition [13]: < 50%; inhibition (Helix pomatia): < 50%; inhibition (Oryza sativa): < 50%; inhibition (Rattus norvegicus): < 50%; inhibition [14]: < 50%
 |  |  |  |  |  |  |  |  |  |  | O[C@@H]1[C@@H]2[C@@H](O)CCCN2C[C@@H]1O | 0.3 µM | 
< 50% | < 50% | 939 µM | < 50% | < 50% | 473 µM | < 50% | < 50% | < 50% | 741 µM | 1000 µM | CCCCNC(=S)N1[C@@H](CO)[C@H](O)[C@@H](O)[C@@H]1CO |  | 

From ChEMBL document CHEMBL3868599, “Strategy for designing selective α-l-rhamnosidase inhibitors: Synthesis and biological evaluation of l-DMDP cyclic isothioureas” (Bioorg Med Chem, 2017)
